Patent US20130338222A1, “METHODS FOR C[…] MITES” (SYNGENTA CROP PROTECTION LLC, priority 2010, published 2013)

Test system: Varroa destructor
Experiment: Varroa mite contact test on Potter-tower-treated Petri dishes, mortality after 72 h
Format: in vivo
Conditions: adult V. destructor, 20 mites (4 dishes of 5), assessed after 72 h
Description: Varroa mites came from bee colonies provided by a beekeeper. The mite population is kept in a dedicated apiary. For screening needs adults are collected on the same day as the beginning of experiment, either in beehive cells containing brood of worker bees or drones, or directly on bees emerging during collection.
Bee nymphs needed to feed adults of Varroa mites during experiments are choosen within the frames from which Varroa is also collected. They are collected at the stage of nymph with white or pink coloured eyes according methology described by Rembold et Kremer (Characterization of postembryonic developmental stages of the female castes of the honey bee, Apis mellifera L. Apidologie 11: 29-38).
3 cm diameter Petri dishes were used as confinement material of Varroa mites during experiments. Covers with wire mesh were put on the top of each Petri dish in order to avoid the mites to run away but also to keep favorable humidity for the bee nymph. […]
After treatment of Petri dishes, five (5) adults of V. destructor collected from the brood were placed in the petri dish. […] Mortality levels are assessed after 72 h (mites which are able to move their legs are considered as alive). […]

Structure (SMILES)	% mortality of Varroa (formulation SC240, concentration 0.8 microlitre)	% mortality of Varroa (formulation SC240, concentration 1.25 microlitre)
Cc1cc(C)c(C2=C(OC(=O)CC(C)(C)C)C3(CCCC3)OC2=O)c(C)c1 [spiromesifen, 3-mesityl-2-oxo-1-oxaspiro[4.4]non-3-en-4-yl 3,3-dimethylbutyrate]	100%	–
CCC(C)(C)C(=O)OC1=C(c2ccc(Cl)cc2Cl)C(=O)OC12CCCCC2 [spirodiclofen, 3-(2,4-dichlorophenyl)-2-oxo-1-oxaspiro[4.5]dec-3-en-4-yl 2,2-dimethylbutyrate]	–	100%
